Consider four molecules from patent US5856510A, “5-alkenyl and 5-alkynyl indole compounds” (Allelix Biopharmaceuticals Inc., priority 1996, dated 1999).

Where two headings read alike, the source gives them in different places.

For the assay, the target named is T1, 5-HT1D-like receptor (rabbit isolated saphenous vein) (Oryctolagus cuniculus, UniProt P49144).
T1 construct: contracting the rabbit saphenous vein; from tissue; host or cells: rabbit saphenous vein rings, endothelium removed
Description: Agonist Assay: contraction of the rabbit isolated saphenous vein (5-HT1D-like receptor agonist activity). The assay is classed as cell-based, rabbit (male New Zealand White).

One may read the EC50 as the concentration at which the effect is half-maximal.

T1 sequence (P49144 whole entry): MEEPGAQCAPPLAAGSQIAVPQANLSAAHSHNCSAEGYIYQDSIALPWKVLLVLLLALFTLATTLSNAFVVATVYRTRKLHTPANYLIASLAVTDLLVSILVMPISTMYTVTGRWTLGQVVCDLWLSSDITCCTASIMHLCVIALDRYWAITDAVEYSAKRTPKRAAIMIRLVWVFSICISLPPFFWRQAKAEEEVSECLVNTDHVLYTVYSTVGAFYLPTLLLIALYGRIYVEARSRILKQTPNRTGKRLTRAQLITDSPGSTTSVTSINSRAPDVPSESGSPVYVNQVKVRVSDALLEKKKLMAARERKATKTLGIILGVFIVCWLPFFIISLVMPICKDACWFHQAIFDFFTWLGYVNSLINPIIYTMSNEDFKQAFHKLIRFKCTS

With `C=Cc1ccc2[nH]cc(C3CCN(C)C3)c2c1` (stereo not shown) [Example 7d, 3-(N-Methylpyrrolidin-3-yl)-5-vinyl-1H-indole], for the setting “contraction of rabbit isolated saphenous vein, concentration causing 50% of the maximum contraction effected by the compound, prazosin, idazoxan and indomethacin 1 μM each, 37° C., pH 7.4, read-out: EC50”, the EC50 is 180 nM.
With `C=Cc1ccc2[nH]cc(CCN(C)C)c2c1` [Example 7a, 3-[2-(N,N-Dimethylamino)ethyl]-5-vinyl-1H-indole], the EC50 is 130 nM.
Turning to `C=Cc1ccc2[nH]cc(C[C@H]3CCCN3C)c2c1` [Example 7c, (R)-3-[(N-Methylpyrrolidin-2-yl)methyl]-5-vinyl-1H-indole], a half-maximal effect (EC50) was put at 80 nM.
The same measure, in the same setting: to `C=Cc1ccc2[nH]cc(CCN3CCCC3)c2c1` [Example 7b, 3-[2-(N-Pyrrolidinyl)ethyl]-5-vinyl-1H-indole] belongs 5800 nM.
